Values of other authors, collected in patent EP1790727A2, “Proteins and nucleic acids encoding same” (Curagen Corporation, priority 2000, dated 2002).
Where two headings read alike, the source gives them in different places.

Key:
MgATP-actin = MgATP-actin (Homo sapiens, UniProt P68133); conditions: but not CaATP-actin
[1] = for increased reepithelialization over saline controls: topically or intraperitoneally
keratinocyte = conditions: after 4-5 h; as little as 10 pg of Tbeta4
[2] = in vivo, mouse paw
neutrophil = conditions: in vitro

| Substance | proteolysis at Gly(46) on subdomain 2, faster when Tbeta(4) is bound (MgATP-actin) | wound contraction more than controls ([1]; by day 7) | collagen deposition and angiogenesis in the treated wounds ([1]; rat, in vivo) | increased reepithelialization over saline controls ([1]; at 4 d) | increased reepithelialization over saline controls ([1]; at 7 d post-wounding) | migration stimulated over migration with medium alone (keratinocyte) | carrageenin-induced edema [2] | neutrophil chemotaxis (neutrophil) |
| --- | --- | --- | --- | --- | --- | --- | --- | --- |
| thymosin beta4 [Tbeta4] | > 12 times | at least 11% | Increased | 42% | ≤ 61% | 2-3 fold | not | – |
| thymosin beta4 sulfoxide | – | – | – | – | – | – | potent inhibitor | inhibited |
